Common to all, as to type: in vivo
Assay [1] relates to Abuthilon. The experiment in a line: Pre-emergence test/greenhouse. To be noted: Table B, after three weeks. Here is the method: (§1) To produce a suitable preparation of active compound, 1 part by weight of active compound is mixed with the stated amount of solvent, the stated amount of emulsifier is added and the concentrate is diluted with water to the desired concentration.
(§2) Seeds of the test plants are sown in normal soil and, after 24 hours, watered with the preparation of active compound. It is expedient to keep constant the amount of water per unit area. The concentration of the active compound in the preparation is of no importance, only the amount of active compound applied per unit area being decisive. After three weeks, the degree of damage to the plants is rated in % damage in comparison to the development of the untreated control. The figures denote:
(§3) 0%=no action (like untreated control)

Assay [2] relates to Amaranthus. The experiment in a line: Pre-emergence test/greenhouse. To be noted: after three weeks. How it is done:
as §1, §2, §3

The subject of a further assay is Barley. Briefly: Pre-emergence test/greenhouse. To be noted: Table A, 125 g/ha, after three weeks. How it is done: as §1, §2, §3
Assay [3] concerns Chenopodium. Briefly: Pre-emergence test/greenhouse. To be noted: after three weeks. Here is the method: as §1, §2, §3
The subject of assay [4] is Maize. Briefly: Pre-emergence test/greenhouse. To be noted: after three weeks. How it is done:
as §1, §2, §3

A further assay deals with Matricaria. Briefly: Pre-emergence test/greenhouse. To be noted: after three weeks. How it is done:
as §1, §2, §3

The subject of the next assay is Portulaca. The experiment in a line: Pre-emergence test/greenhouse. To be noted: after three weeks. Here is the method:
as §1, §2, §3

The subject of assay [5] is Solanum. The experiment in a line: Pre-emergence test/greenhouse. To be noted: after three weeks. How it is done: as §1, §2, §3
Assay [6] deals with Wheat. The experiment in a line: Pre-emergence test/greenhouse. To be noted: Table B, after three weeks. Here is the method: as §1, §2, §3
Assay [7] relates to Abuthilon. Briefly: Post-emergence test/greenhouse. To be noted: Table C, after three weeks. How it is done: as §1
(§4) Test plants which have a height of 5-15 cm are sprayed with the preparation of active compound in such a way as to apply the particular amounts of active compound desired per unit area. After three weeks, the degree of damage to the plants is rated in % damage in comparison to the development of the untreated control.
(§5) 0%=no action (like intreated control)

For assay [8], the system named is Amaranthus. Briefly: Post-emergence test/greenhouse. To be noted: Table C, after three weeks. Here is the method:
as §1, §4, §5

Assay [9] deals with Chenopodium. Briefly: Post-emergence test/greenhouse. To be noted: Table C, after three weeks. Here is the method:
as §1, §4, §5

Assay [10] relates to Maize. Briefly: Post-emergence test/greenhouse. To be noted: Table C, after three weeks. How it is done: as §1, §4, §5
Assay [11] concerns Solanum. The experiment in a line: Post-emergence test/greenhouse. To be noted: Table C, after three weeks. Here is the method: as §1, §4, §5
In a further assay the test system is Veronica. Briefly: Post-emergence test/greenhouse. To be noted: Table C, after three weeks. How it is done: as §1, §4, §5
For assay [12], the system named is Wheat. Briefly: Post-emergence test/greenhouse. To be noted: Table C, after three weeks. How it is done: as §1, §4, §5

This is an account of results in patent US6451736B1, “Substituted aromatic thiocarboxylic acid amides and their use as herbicides” (Bayer Aktiengesellschaft, priority 1994, dated 2002).

`CCn1c(C(F)(F)F)nn(-c2cc(NS(=O)(=O)CC)c(C(N)=S)cc2F)c1=O` [Example 5]: the “degree of damage, Abuthilon” value with Abuthilon [1] (125 g/ha) came to 10%; in the assay with Abuthilon [7] (15 g/ha), 100%. Further, the “degree of damage, Amaranthus” value in the assay on Amaranthus [2] (Table A, 125 g/ha) was determined as 100%; in the assay on Amaranthus [2] (Table B, 125 g/ha), 100%; in the assay on Amaranthus [8] (15 g/ha), 100%. The “degree of damage, Barley” value in the assay with Barley is 0%. The “degree of damage, Chenopodium” value in the assay on Chenopodium [3] (Table A, 125 g/ha) turned out to be 100%; in the assay with Chenopodium [3] (Table B, 125 g/ha), 100%; in the assay on Chenopodium [9] (15 g/ha), 100%. Also, the “degree of damage, Maize” value came out at 0% with Maize [4] (Table A, 125 g/ha); 0% in the assay on Maize [4] (Table B, 125 g/ha); 20% in the assay on Maize [10] (15 g/ha). Further, the “degree of damage, Matricaria” value in the assay on Matricaria (Table A, 125 g/ha) is reported as 90%; with Matricaria (Table B, 125 g/ha), 70%. Moreover, the “degree of damage, Portulaca” value with Portulaca (Table A, 125 g/ha) came to 90%; with Portulaca (Table B, 125 g/ha) it was 90%. Also, the “degree of damage, Solanum” value was 100% in the assay on Solanum [5] (Table A, 125 g/ha); 100% in the assay with Solanum [5] (Table B, 125 g/ha); 100% in the assay with Solanum [11] (15 g/ha). The “degree of damage, Wheat” value is recorded as 0% in the assay on Wheat [6] (125 g/ha) and 10% with Wheat [12] (15 g/ha). For the same molecule, the “degree of damage, Veronica” value in the assay with Veronica (15 g/ha) amounted to 100%.
As to `C#CC(C)Oc1cc(-n2nc(C(F)F)n(C)c2=S)c(F)cc1C(N)=S` (stereo not drawn) [Example 6], the “degree of damage, Abuthilon” value in the assay on Abuthilon [1] (60 g/ha) and with Abuthilon [7] (8 g/ha) was 100% each time. In addition, the “degree of damage, Amaranthus” value in the assay on Amaranthus [2] (Table A, 125 g/ha) is listed as 100%; in the assay with Amaranthus [2] (Table B, 60 g/ha), 100%; with Amaranthus [8] (8 g/ha), 100%. In addition, the “degree of damage, Barley” value with Barley worked out at 0%. In addition, the “degree of damage, Chenopodium” value came out at 100% in the assay on Chenopodium [3] (Table A, 125 g/ha); 100% in the assay with Chenopodium [3] (Table B, 60 g/ha); 100% in the assay on Chenopodium [9] (8 g/ha). Besides, the “degree of damage, Maize” value was 30% in the assay with Maize [4] (Table A, 125 g/ha); 30% with Maize [4] (Table B, 60 g/ha); 50% in the assay with Maize [10] (8 g/ha). Besides, the “degree of damage, Matricaria” value in the assay on Matricaria (Table A, 125 g/ha) was 95%; in the assay on Matricaria (Table B, 60 g/ha), 100%. In addition, the “degree of damage, Portulaca” value in the assay with Portulaca (Table A, 125 g/ha) is given as 100%; in the assay with Portulaca (Table B, 60 g/ha) it was 100%. In addition, the “degree of damage, Solanum” value is given as 100% in the assay with Solanum [5] (Table A, 125 g/ha); 95% in the assay on Solanum [5] (Table B, 60 g/ha); 100% in the assay with Solanum [11] (8 g/ha). Besides, the “degree of damage, Wheat” value with Wheat [6] (60 g/ha) is on record as 20%; with Wheat [12] (8 g/ha) it was 30%. Further, the “degree of damage, Veronica” value in the assay with Veronica (8 g/ha) was 95%.
Take `CCN(CC)CC.CCS(=O)(=O)Nc1cc(-n2nc(C)n(NC)c2=O)c(F)cc1C(N)=S` [Example 7]: the “degree of damage, Abuthilon” value worked out at 95% in the assay with Abuthilon [1] (125 g/ha) and 100% with Abuthilon [7] (60 g/ha). In addition, the “degree of damage, Amaranthus” value with Amaranthus [2] (Table A, 125 g/ha) was determined as 100%; with Amaranthus [2] (Table B, 125 g/ha) it was 100%; in the assay with Amaranthus [8] (60 g/ha) it was 100%. For the same molecule, the “degree of damage, Barley” value in the assay with Barley is reported as 30%. Also, the “degree of damage, Chenopodium” value in the assay with Chenopodium [3] (Table A, 125 g/ha) is 100%; with Chenopodium [3] (Table B, 125 g/ha), 100%; in the assay with Chenopodium [9] (60 g/ha), 95%. In addition, the “degree of damage, Maize” value with Maize [4] (Table A, 125 g/ha) was found to be 0%; with Maize [4] (Table B, 125 g/ha), 0%; with Maize [10] (60 g/ha), 50%. Further, the “degree of damage, Matricaria” value was 95% with Matricaria (Table A, 125 g/ha) and 95% with Matricaria (Table B, 125 g/ha). The “degree of damage, Portulaca” value in the assay with Portulaca (Table A, 125 g/ha) is recorded as 100%; with Portulaca (Table B, 125 g/ha), 100%. Moreover, the “degree of damage, Solanum” value is 95% in the assay on Solanum [5] (Table A, 125 g/ha); 95% with Solanum [5] (Table B, 125 g/ha); 100% with Solanum [11] (60 g/ha). For the same molecule, the “degree of damage, Wheat” value in the assay with Wheat [6] (125 g/ha) was determined as 50%; in the assay on Wheat [12] (60 g/ha), 10%. Besides, the “degree of damage, Veronica” value with Veronica (60 g/ha) turned out to be 95%.
